Where a name gives a salt, the structure may show the parent alone.
Experiments:
plasma kallikrein = target: T1, plasma kallikrein (Homo sapiens, UniProt P03952); assay: Neat Human Plasma Assay (Fluorogenic Peptide), contact pathway-activated (FXIIa) plasma; format: biochemical; details: human citrated plasma 78% final; 10 nM human FXIIa; PFR-AMC substrate; 5 minutes; room temperature
T1 construct: PFR-AMC substrate
Protocol: To analyze inhibition of plasma kallikrein in an ex vivo setting, the potency of compounds was measure in contact pathway-activated plasma assays. In a fluorogenic peptide substrate assay, test compounds dissolved in DMSO were added to sodium citrate collected human or rat plasma in a 96-well microplate. Alternatively, citrated plasma was collected from rats administered the compounds orally or by IV. 10 nM of human FXIIa (Enzyme Research Laboratories) diluted in PKa buffer (20 mM Tris-HCl, pH 7.5, 150 mM NaCl, 1 mM EDTA, 0.1% PEG-8000, and 0.1% Triton X-100) was added to the plasma, followed by the […] of the profluorescent, synthetic plasma kallikrein substrate PFR-AMC (also diluted in PKa buffer). Final plasma concentration in the reaction was 78%. Fluorescence was immediately monitored by excitation/emission wavelengths of 360 nm/480 nm respectively over a period of 5 minutes in a microplate reader. The resulting linear increase in fluorescence emission (reflecting PKa proteolysis of PFR-AMC substrate) was fit to extract a proteolytic rate (fluorescent units over time), and this rate was subsequently plotted against compound inhibitor concentration. Resulting plots were fit to a standard 4-parameter IC50/IC90 equation to determine min/max values, IC50/90, and slope. All experimental steps were performed at room temperature.

[1] = target: human activated kallikrein enzyme (Homo sapiens, UniProt P03952); assay: Inhibition of human activated plasma kallikrein, fluorogenic PFR-AMC substrate, 500 pM enzyme format; format: biochemical; details: 500 pM activated kallikrein; 300 μM PFR-AMC; 30 min preincubation; 10 min room temperature; pH 7.5; read-out: Primary Dose Response Assay: Average EC50
Sequence of human activated kallikrein enzyme (P03952 391-638 limits assumed): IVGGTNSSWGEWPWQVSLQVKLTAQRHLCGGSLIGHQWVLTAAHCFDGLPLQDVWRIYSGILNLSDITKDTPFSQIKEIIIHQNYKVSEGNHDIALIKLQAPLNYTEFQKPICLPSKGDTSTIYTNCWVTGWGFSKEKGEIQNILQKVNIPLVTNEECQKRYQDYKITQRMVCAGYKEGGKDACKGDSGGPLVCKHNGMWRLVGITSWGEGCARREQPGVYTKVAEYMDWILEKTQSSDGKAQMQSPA
Sequence of human activated kallikrein enzyme (P03952 20-390 partner limits assumed): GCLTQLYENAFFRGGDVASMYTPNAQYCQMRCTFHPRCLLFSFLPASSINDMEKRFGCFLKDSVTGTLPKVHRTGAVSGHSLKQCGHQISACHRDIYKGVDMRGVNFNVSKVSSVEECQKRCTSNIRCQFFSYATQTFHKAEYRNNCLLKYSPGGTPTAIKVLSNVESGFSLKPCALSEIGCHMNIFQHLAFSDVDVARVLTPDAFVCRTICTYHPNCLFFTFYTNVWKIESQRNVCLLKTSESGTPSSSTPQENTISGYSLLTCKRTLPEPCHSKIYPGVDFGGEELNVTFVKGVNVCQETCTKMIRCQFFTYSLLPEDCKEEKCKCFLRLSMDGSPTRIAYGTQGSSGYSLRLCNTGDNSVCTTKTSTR
Method in brief: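 500 pM activated kallikrein preincubated 30 min at room temperature with inhibitors in pH 7.5 Tris/EDTA/NaCl buffer with PEG-400 and Triton X-100. Reaction started with 300 μM PFR-AMC, run 10 min at room temperature; AMC fluorescence read at ex 380/em 460 nm.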

T1 sequence (P03952 20-638): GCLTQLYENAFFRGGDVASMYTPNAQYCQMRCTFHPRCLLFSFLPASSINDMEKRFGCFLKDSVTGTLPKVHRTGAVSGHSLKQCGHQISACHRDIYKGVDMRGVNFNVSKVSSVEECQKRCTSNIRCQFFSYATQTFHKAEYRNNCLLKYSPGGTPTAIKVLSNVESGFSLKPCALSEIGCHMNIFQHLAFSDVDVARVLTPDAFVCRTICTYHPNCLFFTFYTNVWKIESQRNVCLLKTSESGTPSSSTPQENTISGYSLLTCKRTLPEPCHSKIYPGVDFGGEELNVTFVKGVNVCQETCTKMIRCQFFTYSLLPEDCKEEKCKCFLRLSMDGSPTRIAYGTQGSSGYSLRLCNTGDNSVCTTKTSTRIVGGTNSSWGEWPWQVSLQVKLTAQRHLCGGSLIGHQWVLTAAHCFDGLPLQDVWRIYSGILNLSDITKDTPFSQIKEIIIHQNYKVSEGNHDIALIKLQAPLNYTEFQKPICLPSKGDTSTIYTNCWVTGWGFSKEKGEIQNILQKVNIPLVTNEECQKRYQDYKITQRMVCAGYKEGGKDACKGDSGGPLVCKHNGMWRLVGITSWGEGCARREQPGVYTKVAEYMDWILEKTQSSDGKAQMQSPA

| Compound | IC90 (plasma kallikrein) [µM] | EC50 [1] [nM] |
| --- | --- | --- |
| Cc1cc2c(N)nccc2c(C)c1CNc1nccc2nn(Cc3cn4cc(C5CC5)ccc4n3)cc12 [Example 267, 6-(((2-((6-cyclopropylimidazo[1,2-a]pyridin-2-yl)methyl)-2H-pyrazolo[4,3-c]pyridin-4-yl)amino)methyl)-5,7-dimethylisoquinolin-1-amine] | ≤ 1 | < 1 |
| Cc1cc2c(N)nccc2c(C)c1CNc1cc(OCc2nc3ccc(C4CC4)cn3n2)ncn1 [Example 388, 6-(((6-((6-cyclopropyl-[1,2,4]triazolo[1,5-a]pyridin-2-yl)methoxy)pyrimidin-4-yl)amino)methyl)-5,7-dimethylisoquinolin-1-amine] | > 5 | 1 to 10 |
| Cc1cc2c(N)nccc2c(C)c1CNc1cc(NCc2cn3cc(C4CC4)ccc3n2)ncn1 [Example 331, N^4-((1-amino-5,7-dimethylisoquinolin-6-yl)methyl)-N^6-((6-cyclopropylimidazo[1,2-a]pyridin-2-yl)methyl)pyrimidine-4,6-diamine] | 1 to 5 | < 1 |
| Cc1cnc2ccc(COc3cnnc(NCc4c(C)cc5c(N)nccc5c4C)c3)cc2c1 [Example 416, 5,7-dimethyl-6-(((5-((3-methylquinolin-6-yl)methoxy)pyridazin-3-yl)amino)methyl)isoquinolin-1-amine] | 1 to 5 | < 1 |
| Cc1cnc2ccc(Cn3cc(C(=O)NCc4c(C)cc5c(N)nccc5c4C)cn3)cc2c1 [Example 115, N-((1-amino-5,7-dimethylisoquinolin-6-yl)methyl)-1-((3-methylquinolin-6-yl)methyl)-1H-pyrazole-4-carboxamide] | ≤ 1 | < 1 |
| Cc1cc2c(N)nccc2c(C)c1CNc1cc(OCc2cc3cc(C4CC4)cc(N4CCOC4=O)n3n2)ncn1 [Example 256, 3-(2-(((6-(((1-amino-5,7-dimethylisoquinolin-6-yl)methyl)amino)pyrimidin-4-yl)oxy)methyl)-5-cyclopropylpyrazolo[1,5-a]pyridin-7-yl)oxazolidin-2-one] | ≤ 1 | < 1 |
| Cc1cc2c(N)nccc2c(C)c1CNC(=O)c1cnn(Cc2ccc(CC(=O)N3CC4CC4C3)cc2)c1 (stereo not drawn) [Example 222, 1-(4-(2-(3-azabicyclo[3.1.0]hexan-3-yl)-2-oxoethyl)benzyl)-N-((1-amino-5,7-dimethylisoquinolin-6-yl)methyl)-1H-pyrazole-4-carboxamide] | 1 to 5 | < 1 |
| Cc1cc2c(N)nccc2c(C)c1CNc1cc(OCc2ccc3ncc(Cl)cc3c2)ncn1 [Example 373, 6-(((6-((3-chloroquinolin-6-yl)methoxy)pyrimidin-4-yl)amino)methyl)-5,7-dimethylisoquinolin-1-amine formic acid salt] | > 5 | 1 to 10 |
| Cc1cc2c(N)nccc2c(C)c1CNc1cc(OCc2ccc3ncc(C4CC4)cc3c2)cnn1 [Example 422, 6-(((5-((3-cyclopropylquinolin-6-yl)methoxy)pyridazin-3-yl)amino)methyl)-5,7-dimethylisoquinolin-1-amine] | 1 to 5 | < 1 |
| Cc1cc2c(N)nccc2c(C)c1CNC(=O)c1cnn(Cc2nc3ccc(C4CC4)cn3n2)c1 [Example I-482, N-((1-amino-5,7-dimethylisoquinolin-6-yl)methyl)-1-((6-cyclopropyl-[1,2,4]triazolo[1,5-a]pyridin-2-yl)methyl)-1H-pyrazole-4-carboxamide] | ≤ 1 | < 1 |
| Cc1cc2c(N)nccc2c(C)c1CNc1nccn2nc(Cc3cn4cc(C5CC5)ccc4n3)nc12 [Example 498, 6-(((2-((6-cyclopropylimidazo[1,2-a]pyridin-2-yl)methyl)-[1,2,4]triazolo[1,5-a]pyrazin-8-yl)amino)methyl)-5,7-dimethylisoquinolin-1-amine] | 1 to 5 | 1 to 10 |
| Cc1cc2c(N)nccc2c(C)c1CNc1cc(OCc2ccc3ncc(C4CC4)cc3c2)ccn1 [Example 239, 6-(((4-((3-cyclopropylquinolin-6-yl)methoxy)pyridin-2-yl)amino)methyl)-5,7-dimethylisoquinolin-1-amine] | > 5 | 1 to 10 |
| Cc1cc2c(N)nccc2c(C)c1CNc1cc(OCc2cn3nc(C4CC4)ccc3n2)ncn1 [Example 261, 6-(((6-((6-cyclopropylimidazo[1,2-b]pyridazin-2-yl)methoxy)pyrimidin-4-yl)amino)methyl)-5,7-dimethylisoquinolin-1-amine] | 1 to 5 | < 1 |
| Cc1cc2c(N)nccc2c(C)c1CNc1cc(OCc2cc3cc(C4CC4)ccn3n2)ncn1 [Example 400, 6-(((6-((5-cyclopropylpyrazolo[1,5-a]pyridin-2-yl)methoxy)pyrimidin-4-yl)amino)methyl)-5,7-dimethylisoquinolin-1-amine] | > 5 | 1 to 10 |
| Cc1cc2c(N)nccc2c(C)c1CNc1cc(NCc2ccc(Cn3cccn3)cc2)c(C(F)(F)F)nn1 [Example 451, N^5-(4-((1H-pyrazol-1-yl)methyl)benzyl)-N^3-((1-amino-5,7-dimethylisoquinolin-6-yl)methyl)-6-(trifluoromethyl)pyridazine-3,5-diamine] | 1 to 5 | < 1 |
| Cc1cc2c(N)nccc2c(C)c1CNc1cc(OCc2cn3cc(C4CC4)ccc3n2)c(Cl)cn1 [Example 280, 6-(((5-chloro-4-((6-cyclopropylimidazo[1,2-a]pyridin-2-yl)methoxy)pyridin-2-yl)amino)methyl)-5,7-dimethylisoquinolin-1-amine] | > 5 | 1 to 10 |
| Cc1cc2c(N)nccc2c(C)c1CNc1cc(OCc2cn3cc(C4CC4)ccc3n2)ccn1 [Example 284, 6-(((4-((6-cyclopropylimidazo[1,2-a]pyridin-2-yl)methoxy)pyridin-2-yl)amino)methyl)-5,7-dimethylisoquinolin-1-amine] | > 5 | < 1 |
| Cc1cc2c(N)nccc2c(C)c1CNc1cc(OCc2cn3cc(C4CC4)cnc3n2)ncn1 [Example 262, 6-(((6-((6-cyclopropylimidazo[1,2-a]pyrimidin-2-yl)methoxy)pyrimidin-4-yl)amino)methyl)-5,7-dimethylisoquinolin-1-amine] | ≤ 1 | < 1 |
| Cc1c(CNc2cc(OCc3ccc(Cn4cccn4)cc3)ncn2)ccc2c(N)nccc12 [Example 533, 6-(((6-((4-((1H-pyrazol-1-yl)methyl)benzyl)oxy)pyrimidin-4-yl)amino)methyl)-5-methylisoquinolin-1-amine] | > 5 | 1 to 10 |
| Cc1cc2c(N)nccc2c(C)c1CNc1cc(NCc2cn3nc(C4CC4)ccc3n2)ncn1 [Example 242, N4-((1-amino-5,7-dimethylisoquinolin-6-yl)methyl)-N6-((6-cyclopropylimidazo[1,2-b]pyridazin-2-yl)methyl)pyrimidine-4,6-diamine] | 1 to 5 | < 1 |
| Cc1cc2c(N)nccc2c(C)c1CNc1cc(OCc2cn3cc(C4CC4)cc(C4(F)COC4)c3n2)ncn1 [Example 272, 6-(((6-((6-cyclopropyl-8-(3-fluorooxetan-3-yl)imidazo[1,2-a]pyridin-2-yl)methoxy)pyrimidin-4-yl)amino)methyl)-5,7-dimethylisoquinolin-1-amine] | 1 to 5 | < 1 |
| Cc1cc2c(N)nccc2c(C)c1CNC(=O)c1cnn(Cc2cn3cc(Cl)ccc3n2)c1 [Example 101, N-((1-amino-5,7-dimethylisoquinolin-6-yl)methyl)-1-((6-chloroimidazo[1,2-a]pyridin-2-yl)methyl)-1H-pyrazole-4-carboxamide] | ≤ 1 | < 1 |
| Cc1cc2c(N)nccc2c(C)c1CNc1cc(OCc2ccc(Cn3cccn3)cc2)cnn1 [Example 432, 6-(((5-((4-((1H-pyrazol-1-yl)methyl)benzyl)oxy)pyridazin-3-yl)amino)methyl)-5,7-dimethylisoquinolin-1-amine] | 1 to 5 | < 1 |
| Cc1cc2c(N)nccc2c(C)c1CNc1cc(OCc2cc3cc(C4CC4)cc(CCC(C)(C)O)n3n2)ncn1 [Example 508, 4-(2-(((6-(((1-amino-5,7-dimethylisoquinolin-6-yl)methyl)amino)pyrimidin-4-yl)oxy)methyl)-5-cyclopropylpyrazolo[1,5-a]pyridin-7-yl)-2-methylbutan-2-ol] | > 5 | 1 to 10 |

Reference: patent US20260374754A1, “N-((ISOQUINOLIN-6-YL)METHYL)-1H-PYRAZOLE-4-CARBOXAMIDE DERIVATIVES AS PLASMA KALLIKREIN INHIBITORS FOR THE TREATMENT OF HEREDITARY ANGIODEMA” (Takeda Pharmaceutical Company Limited, priority 2022, published 2026)
